# Biological target: human Lck kinase (UniProt P06239)
# Assay: Lck inhibition assay (A: radioactivity-based or B: spectrophotometric coupled-enzyme assay)
# Assay type: biochemical
# Settings: read-out: Lck Activity (Ki rating)
# Method in brief: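 Two formats. Radiometric: full-length bovine thymus Lck, poly(Glu:Tyr 4:1) 5 mg/ml, 10 μM ATP with ^33P-ATP, HEPES pH 7.6, 10 min preincubation then 20 min at 30 °C, TCA-quenched filter counting. Coupled: 50 nM recombinant human Lck, 150 μM ATP, NADH loss at 340 nm. Ki from competitive-inhibition fit.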
row,Ki,Structure (SMILES)
1,< 100 nM,"CSc1sc(-c2ccnc(Nc3ccccc3)n2)c(-c2ccc(C)cc2)c1C#N [IIa-14, 2-Methylsulfanyl-5-(2-phenylamino-pyrimidin-4-yl)-4-p-tolyl-thiophene-3-carbonitrile]"
2,100 to 1000 nM,"CCOc1sc(-c2ccnc(Nc3ccccc3)n2)c(-c2ccc(Cl)cc2)c1C#N [IIa-11, 2-Ethoxy-5-(2-phenylamino-pyrimidin-4-yl)-4-(4-chloro-phenyl)-thiophene-3-carbonitrile]"
3,< 100 nM,"CSc1sc(-c2ccnc(Nc3ccccc3)n2)c(-c2ccc(Cl)cc2)c1C#N [IIa-10, 2-Methylsulfanyl-5-(2-phenylamino-pyrimidin-4-yl)-4-(4-chloro-phenyl)-thiophene-3-carbonitrile]"
4,< 100 nM,"CCOc1sc(-c2ccnc(Nc3ccccc3)n2)c(-c2ccc(C)cc2)c1C#N [IIa-15, 2-Ethoxy-5-(2-phenylamino-pyrimidin-4-yl)-4-p-tolyl-thiophene-3-carbonitrile]"

# From US6642227B2, “Inhibitors of c-Jun N-terminal kinases (JNK) and other protein kinases” (Vertex Pharmaceuticals Incorporated, priority 2001, dated 2003)
